Results on nine compounds are retold here after ChEMBL document CHEMBL4627341, “Synthesis and evaluation of anti-tumor activity of novel triazolo[1,5-a] pyrimidine on cancer cells by induction of cellular apoptosis and inhibition of epithelial-to-mesenchymal transition process” (Bioorg Med Chem Lett, 2020).

For one assay, the system named is NHDF. The experiment in a line: Cytotoxicity against human HDF cells assessed as reduction in cell viability incubated for 48 hrs by MTT assay. The class given is cell-based. (In general: Formazan colour is commonly taken as a measure of viable cells.)
The subject of assay [1] is PC-3. In words: Cytotoxicity against human PC3 cells assessed as reduction in cell viability incubated for 48 hrs by MTT assay. The format is functional, cell-based. Particulars: PC-3, 48 h.
Assay [2] deals with A-375. The experiment in a line: Cytotoxicity against human A375 cells assessed as reduction in cell viability incubated for 48 hrs by MTT assay. The format is functional, cell-based. Conditions: A-375, 48 h.
The test system of assay [3] is LNCaP. In words: Cytotoxicity against human LNCAP cells assessed as reduction in cell viability incubated for 48 hrs by MTT assay. The class given is functional, cell-based.
Assay [4] relates to LNCaP. The experiment in a line: Inhibition of cell migration at human LNCAP cells incubated for 24 hrs by phase contrast microscopy based wound healing assay. The class given is functional.
For assay [5], the system named is LNCaP. The experiment in a line: Induction of apoptosis in human LNCAP cells assessed as downregulation of Bcl2 mRNA expression by qRT-PCR analysis. The format is functional, cell-based.
Assay [6] relates to LNCaP. In words: Inhibition of epithelial-mesenchymal transition in human LNCAP cells assessed as decrease in vimentin mRNA expression level by qRT-PCR analysis. The class given is functional, cell-based. On the technique in general: In qPCR the cycle at which signal appears reflects the starting amount.
Assay [7] concerns LNCaP. In words: Induction of cell death in human LNCAP cells assessed as morphological changes by DAPI staining based inverted fluorescence microscopy. The format is functional.
The test system of assay [8] is LNCaP. The experiment in a line: Induction of apoptosis in human LNCAP cells assessed as upregulation of Bax mRNA expression by qRT-PCR analysis. The class given is functional, cell-based.
Assay [9] has as its system LNCaP. The experiment in a line: Induction of cell death in human LNCAP cells assessed as chromatin fragmentation by DAPI staining based inverted fluorescence microscopy. The format is functional.
For assay [10], the system named is PC-3. In words: Induction of cell death in human PC3 cells assessed as morphological changes by DAPI staining based inverted fluorescence microscopy. The class given is functional.
Assay [11] deals with A-375. In words: Induction of cell death in human A375 cells assessed as morphological changes by DAPI staining based inverted fluorescence microscopy. The class given is functional.
In assay [12] the test system is A-375. The experiment in a line: Induction of cell death in human A375 cells assessed as chromatin fragmentation by DAPI staining based inverted fluorescence microscopy. The format is functional.
Assay [13] has as its system LNCaP. In words: Inhibition of epithelial-mesenchymal transition in human LNCAP cells assessed as increase in E-cadherin mRNA expression by qRT-PCR analysis. The class given is functional, cell-based.
The subject of assay [14] is PC-3. The experiment in a line: Induction of cell death in human PC3 cells assessed as chromatin fragmentation by DAPI staining based inverted fluorescence microscopy. The class given is functional.

The source made the active and inactive calls. The rule behind the calls is not given here.

Take `CNC1=C([N+](=O)[O-])C(c2ccccc2)Nc2ncnn21` (configuration not stated): the IC50 (usually the concentration at which inhibition is half-maximal) in the assay on NHDF was above 100 µM; with PC-3 [1], 45 µM; in the assay on A-375 [2] it was above 100 µM; with LNCaP [3], above 100 µM.

For the compound `CNC1=C([N+](=O)[O-])C(c2cccc(F)c2)Nc2ncnn21` (configuration not stated), the IC50 in the assay on NHDF was above 100 µM; with PC-3 [1], 55.6 µM; in the assay on A-375 [2], 61.3 µM; in the assay on LNCaP [3] it was above 100 µM.

Take `CNC1=C([N+](=O)[O-])C(c2ccc(Br)cc2)Nc2ncnn21` (configuration not stated): the 50% inhibitory concentration (IC50) with NHDF, with PC-3 [1], in the assay on A-375 [2] and with LNCaP [3] was above 100 µM each time.

As to `CNC1=C([N+](=O)[O-])C(c2ccc([N+](=O)[O-])cc2)Nc2ncnn21` (configuration not stated), the inhibition result with LNCaP [4], with LNCaP [6] and in the assay with LNCaP [13] was “Active” in each case. For the same compound, the outcome with LNCaP [5], with LNCaP [7], with LNCaP [8], with LNCaP [9], with PC-3 [10] and in the assay with A-375 [11] was Active. Also, the result with A-375 [12] and in the assay with PC-3 [14] was Active. Also, the IC50 with NHDF is above 100 µM; in the assay with PC-3 [1], 65 µM; with A-375 [2], 31.7 µM; in the assay on LNCaP [3] it was 28.6 µM.

As to `COc1cc([C@@H]2c3cc4c(cc3[C@@H](O[C@@H]3O[C@@H]5CO[C@@H](C)O[C@H]5[C@H](O)[C@H]3O)[C@H]3COC(=O)[C@H]23)OCO4)cc(OC)c1O` [ETOPOSIDE], the IC50 in the assay on NHDF was above 100 µM; in the assay on PC-3 [1], 30 µM; in the assay with A-375 [2] it was 24.5 µM; in the assay with LNCaP [3], 31.2 µM.

As for `CNC1=C([N+](=O)[O-])C(c2ccccc2Cl)Nc2ncnn21` (configuration not stated), the half-maximal inhibitory concentration (IC50) in the assay on NHDF was above 100 µM; in the assay on PC-3 [1] it was 63.3 µM; in the assay on A-375 [2] it was above 100 µM; with LNCaP [3] it was above 100 µM.

Turning to `CNc1c([N+](=O)[O-])c(-c2ccncc2)nc2ncnn12`, the concentration for half-maximal inhibition (IC50) with NHDF was above 100 µM; in the assay with PC-3 [1], above 100 µM; in the assay on A-375 [2], above 100 µM; in the assay with LNCaP [3] it was 31.7 µM.

Turning to `CNC1=C([N+](=O)[O-])C(c2ccc(Cl)cc2)Nc2ncnn21` (configuration not stated), the IC50 in the assay on NHDF, in the assay with PC-3 [1], in the assay on A-375 [2] and in the assay with LNCaP [3] was above 100 µM each time.

In the case of `CNC1=C([N+](=O)[O-])C(c2ccc(C(F)(F)F)cc2)Nc2ncnn21` (configuration not stated), the IC50 with NHDF is above 100 µM; in the assay on PC-3 [1], above 100 µM; in the assay with A-375 [2], 63.4 µM; in the assay on LNCaP [3], above 100 µM.
